CC1CCC(=O)C1=O (stereo unspecified)
solubility (mole fraction)
Settings	278.15 K	283.15 K	288.15 K	293.15 K	298.15 K	303.15 K	308.15 K	313.15 K
in 1,2-dichloroethane	0.0554	0.0773	0.0992	0.122	0.153	0.184	0.215	0.254
in acetone	0.0937	0.105	0.133	0.152	0.182	0.221	0.255	0.298
in acetonitrile	0.0331	0.0519	0.0657	0.0823	0.11	0.139	0.17	0.204
in dichloromethane	0.103	0.123	0.145	0.18	0.217	0.251	0.292	0.333
in ethanol	0.044	0.0503	0.0645	0.0752	0.0939	0.111	0.145	0.187
in ethyl acetate	0.0482	0.0574	0.0698	0.094	0.131	0.156	0.203	0.251
in ethyl formate	0.0504	0.0603	0.0707	0.0943	0.12	0.147	0.176	0.239
in isobutanol	0.0394	0.0467	0.052	0.0701	0.0866	0.111	0.153	0.211
in isopropanol	0.0198	0.0388	0.0599	0.0768	0.101	0.13	0.165	0.207
in methanol	0.0488	0.0629	0.0787	0.0966	0.119	0.147	0.177	0.208
in n-butanol	0.0353	0.0444	0.0552	0.0693	0.0858	0.105	0.133	0.18
in n-propanol	0.0389	0.0474	0.0581	0.0731	0.0903	0.113	0.141	0.202

Source: BigSolDB 2.1
